# Data published in publication PMC4714926 (ACS chemical biology, 2015).
# Columns and labels:
# GFP-HIV protease fusion = assay: GFP-HIV protease reporter assay in HEK293 T-REx cells; format: cell-based, human
# FKBP = settings: read-out: KD for FKBP; cited from earlier work
# recombinant human FKBP12 = recombinant human FKBP12 (Homo sapiens, UniProt P62942); assay: PAMPA partitioning with recombinant human FKBP12 on one side of the membrane; settings: compared to control wells
# Sequence of recombinant human FKBP12 (P62942 whole entry): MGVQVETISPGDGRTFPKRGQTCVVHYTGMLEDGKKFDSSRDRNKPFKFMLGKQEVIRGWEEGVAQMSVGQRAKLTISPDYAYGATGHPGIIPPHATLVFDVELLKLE
smiles,measurement,setting,value
COc1ccc(S(=O)(=O)N(CC(C)C)C[C@@H](O)[C@H](Cc2ccccc2)NC(=O)O[C@H]2CCOC2)cc1 [4-OMe-amprenavir],rescue of cell viability and GFP fluorescence,"GFP-HIV protease fusion; 5 μM, after doxycycline induction, fluorescence and light microscopy",could rescue cell viability and increase fluorescence
same,dependence of GFP fluorescence on mCherry-FKBP12 over-expression,"GFP-HIV protease fusion; transient mCherry-FKBP12 over-expression, microscopy",did not show this dependence on mCherry-FKBP12 expression
C=CC[C@@H]1/C=C(\C)C[C@H](C)C[C@H](OC)[C@H]2O[C@@](O)(C(=O)C(=O)N3CCCC[C@H]3C(=O)O[C@H](/C(C)=C/[C@@H]3CC[C@@H](O)[C@H](OC)C3)[C@H](C)[C@@H](O)CC1=O)[C@H](C)C[C@@H]2OC [FK506],Kd,FKBP,~0.6 nM
CC(C)CN(C[C@@H](O)[C@H](Cc1ccccc1)NC(=O)O[C@H]1CCOC1)S(=O)(=O)c1ccc(N)cc1 [amprenavir],enhancement of partitioning by FKBP12,recombinant human FKBP12,unaffected by FKBP12
